# According to patent US12091395B2, “Griseofulvin compound” (Daiichi Sankyo Company, Limited, priority 2016, dated 2024):
# Test system: TNF-α
# Test: Determination of TNF-α inhibition rate (LPS-induced inflammation in mice, serum TNF-α)
# Format: in vivo
# Conditions: Mus musculus, 1 h, oral 100 mg/kg in 0.5% methyl cellulose, LPS 0.4 mg/kg i.p. one hour later, serum TNF-α one hour after LPS
# Protocol: A test substance was suspended in a 0.5%. (w/v) methyl cellulose and orally administered to mice at a dose of 100 mg/kg. One hour later, a lipopolysaccharide (LPS, Sigma-Aldrich, L2630 (trade name)) (0.4 mg/kg) was intraperitoneally administered to induce inflammation. One hour after administration of LPS, blood was taken from the vena cava under anesthesia with isoflurane, placed in a tube containing a serum separating agent, allowed to stand still at room temperature for 20-30 minutes and centrifuged at 4° C. at 12,000 rpm for 5 minutes to obtain the serum. Thereafter, the amount of the TNF-α in the serum was measured by using Mouse TNF-α Elisa Kit (Invitrogen, KMC3011C (trade name)) or Mouse TNF-α Immunoassay Kit (PerkinElmer, AL505 (trade name)) in accordance with the protocol of the kit. The serum was diluted 10 times with the dilution solution contained in the kit and put in use.
# TNF-α inhibition rate (%) of the test substance was calculated in accordance with the following expression. TNF-α inhibition rate (%)=[(TNF-α amount of control group)−(TNF-α amount of test substance administration group)]×100/(TNF-α amount of control group)
row,SMILES,inhibition in vivo at 100 mg/kg [%]
1,"COCCOc1cc(OC)c2c(c1Cl)O[C@]1(C2=O)C(OC)=CC(=O)C[C@H]1C [Example 2, (2S,5′R)-7-Chloro-3′,4-dimethoxy-6-(2-methoxyethoxy)-5′-methyl-spiro[benzofuran-2,4′-cyclohex-2-ene]-1′,3-dione]",71
2,"COC1=CC(=O)C[C@@H](C)[C@]12Oc1c(Cl)c(-c3nnc(C)o3)cc(OCCO)c1C2=O [Example 14, (2S,5′R)-7-Chloro-4-(2-hydroxyethoxy)-3′-methoxy-5′-methyl-6-(5-methyl-1,3,4-oxadiazol-2-yl)spiro[benzofuran-2,4′-cyclohex-2-ene]-1′,3-dione]",24
3,"COC1=CC(=O)C[C@@H](C)[C@]12Oc1c(Cl)c(-c3nnc(C(C)(C)O)o3)cc(OC)c1C2=O [Example 8, (2S,5′R)-7-Chloro-6-[5-(1-hydroxy-1-methyl-ethyl)-1,3,4-oxadiazol-2-yl]-3′,4-dimethoxy-5′-methyl-spiro[benzofuran-2,4′-cyclohex-2-ene]-1′,3-dione]",38
4,"COC1=CC(=O)C[C@@H](C)[C@]12Oc1c(Cl)c(OCCO)cc(OC)c1C2=O [Example 1, (2S,5′R)-7-Chloro-6-(2-hydroxyethoxy)-3′,4-dimethoxy-5′-methyl-spiro[benzofuran-2,4′-cyclohex-2-ene]-1′,3-dione]",62
5,"COC1=CC(=O)C[C@@H](C)[C@]12Oc1c(Cl)c(-c3nnc([C@H](C)O)o3)cc(OC)c1C2=O [Example 9, (2S,5′R)-7-Chloro-6-[5-[(1S)-1-hydroxyethyl]-1,3,4-oxadiazol-2-yl]-3′,4-dimethoxy-5′-methyl-spiro[benzofuran-2,4′-cyclohex-2-ene]-1′,3-dione]",65
6,"COC1=CC(=O)C[C@@H](C)[C@]12Oc1c(Cl)c(-c3nnc([C@@H](C)O)o3)cc(OC)c1C2=O [Example 10, (2S,5′R)-7-Chloro-6-[5-[(1R)-1-hydroxyethyl]-1,3,4-oxadiazol-2-yl]-3′,4-dimethoxy-5′-methyl-spiro[benzofuran-2,4′-cyclohex-2-ene]-1′,3-dione]",58
7,"COC1=CC(=O)C[C@@H](C)[C@]12Oc1c(Cl)c(-c3nnc(C)o3)cc(OC)c1C2=O [Example 5, (2S,5′R)-7-Chloro-3′,4-dimethoxy-5′-methyl-6-(5-methyl-1,3,4-oxadiazol-2-yl)spiro[benzofuran-2,4′-cyclohex-2-ene]-1′,3-dione]",70
8,"CCOc1cc(-c2nnc(C(C)(C)O)o2)c(Cl)c2c1C(=O)[C@@]1(O2)C(OC)=CC(=O)C[C@H]1C [Example 11, (2S,5′R)-7-Chloro-4-ethoxy-6-[5-(1-hydroxy-1-methyl-ethyl)-1,3,4-oxadiazol-2-yl]-3′-methoxy-5′-methyl-spiro[benzofuran-2,4′-cyclohex-2-ene]-1′,3-dione]",61
9,"COC1=CC(=O)C[C@@H](C)[C@]12Oc1c(Cl)c(-c3nc(C)no3)cc(OC)c1C2=O [Example 6, (2S,5′R)-7-Chloro-3′,4-dimethoxy-5′-methyl-6-(3-methyl-1,2,4-oxadiazol-5-yl)spiro[benzofuran-2,4′-cyclohex-2-ene]-1′,3-dione]",55
10,COC1=CC(=O)C[C@@H](C)[C@]12Oc1c(Cl)c(OC)cc(OC)c1C2=O [Griseofulvin],19
11,"COC1=CC(=O)C[C@@H](C)[C@]12Oc1c(Cl)c(-c3noc(C)n3)cc(OCCO)c1C2=O [Example 16, (2S,5′R)-7-Chloro-4-(2-hydroxyethoxy)-3′-methoxy-5′-methyl-6-(5-methyl-1,2,4-oxadiazol-3-yl)spiro[benzofuran-2,4′-cyclohex-2-ene]-1′,3-dione]",62
12,"CCOc1cc(-c2nnc([C@H](C)O)o2)c(Cl)c2c1C(=O)[C@@]1(O2)C(OC)=CC(=O)C[C@H]1C [Example 12, (2S,5′R)-7-Chloro-4-ethoxy-6-[5-[(1S)-1-hydroxyethyl]-1,3,4-oxadiazol-2-yl]-3′-methoxy-5′-methyl-spiro[benzofuran-2,4′-cyclohex-2-ene]-1′,3-dione]",61
13,"COC1=CC(=O)C[C@@H](C)[C@]12Oc1c(Cl)c(-c3ccn(C)n3)cc(OC)c1C2=O [Example 3, (2S,5′R)-7-Chloro-3′,4-dimethoxy-5′-methyl-6-(1-methylpyrazol-3-yl)spiro[benzofuran-2,4′-cyclohex-2-ene]-1′,3-dione]",65
14,"COC1=CC(=O)C[C@@H](C)[C@]12Oc1c(Cl)c(-c3nc(C)no3)cc(OCCO)c1C2=O [Example 15, (2S,5′R)-7-Chloro-4-(2-hydroxyethoxy)-3′-methoxy-5′-methyl-6-(3-methyl-1,2,4-oxadiazol-5-yl)spiro[benzofuran-2,4′-cyclohex-2-ene]-1′,3-dione]",55
15,"COC1=CC(=O)C[C@@H](C)[C@]12Oc1c(Cl)c(-c3noc(C)n3)cc(OC)c1C2=O [Example 7, (2S,5′R)-7-Chloro-3′,4-dimethoxy-5′-methyl-6-(5-methyl-1,2,4-oxadiazol-3-yl)spiro[benzofuran-2,4′-cyclohex-2-ene]-1′,3-dione]",65
16,"CCn1ccc(-c2cc(OC)c3c(c2Cl)O[C@]2(C3=O)C(OC)=CC(=O)C[C@H]2C)n1 [Example 4, (2S,5′R)-7-Chloro-6-(1-ethylpyrazol-3-yl)-3′,4-dimethoxy-5′-methyl-spiro[benzofuran-2,4′-cyclohex-2-ene]-1′,3-dione]",73
17,"COC1=CC(=O)C[C@@H](C)[C@]12Oc1c(Cl)c(-c3nc(C(C)O)no3)cc(OC)c1C2=O (stereo partly drawn) [Example 13, (2S,5′R)-7-Chloro-6-[3-(l-hydroxyethyl)-1,2,4-oxadiazol-5-yl]-3′,4-dimethoxy-5′-methyl-spiro[benzofuran-2,4′-cyclohex-2-ene]-1′,3-dione]",82
